Data as given in patent US11466013B2 (Betta Pharmaceuticals Co., LTD, priority 2018, dated 2022).

Experiments:
ERK2 = ERK2 (Homo sapiens, UniProt P28482); experiment: Kinase assay (Caliper, FAM-labeled peptide), ERK2; assay type: biochemical
Description: (§1) The compound was diluted to the desired concentration with DMSO, transferred 100 μL to a 96-well plate, and performed a gradient dilution 10 μL of compound from each well was taken and mixed with 90 μL of kinase buffer, and then transferred 5 μL from each well to a 384-well plate. Kinase and FAM-labeled peptide and ATP were added to 1× kinase alkaline buffer to obtain 2.5× enzyme solution and 2.5× peptide solution, 10 μL of 2.5× enzyme solution was added to the 384-well assay plate. After incubating for 10 minutes at room temperature, 10 μL of 2.5× peptide solution was added to the 384-well plate. After reacting for a specific time at […], 25 μL of termination buffer was added to stop reaction. After reading the collected data on Caliper, the data was converted to inhibition percentage. Inhibition percentage=(maximum value−conversion value)/(maximum value−minimum value)*100.
(§2) The “maximum” is the DMSO control, the “minimum” indicates the low control.
(§3) Graphpad Prism software was used to perform curve fitting and obtain IC50 value.

ERK1 = ERK1 (Homo sapiens, UniProt P27361); experiment: Kinase assay (Caliper, FAM-labeled peptide), ERK1; assay type: biochemical
Description: as §1, §2, §3

ERK2, sequence (P28482 whole entry): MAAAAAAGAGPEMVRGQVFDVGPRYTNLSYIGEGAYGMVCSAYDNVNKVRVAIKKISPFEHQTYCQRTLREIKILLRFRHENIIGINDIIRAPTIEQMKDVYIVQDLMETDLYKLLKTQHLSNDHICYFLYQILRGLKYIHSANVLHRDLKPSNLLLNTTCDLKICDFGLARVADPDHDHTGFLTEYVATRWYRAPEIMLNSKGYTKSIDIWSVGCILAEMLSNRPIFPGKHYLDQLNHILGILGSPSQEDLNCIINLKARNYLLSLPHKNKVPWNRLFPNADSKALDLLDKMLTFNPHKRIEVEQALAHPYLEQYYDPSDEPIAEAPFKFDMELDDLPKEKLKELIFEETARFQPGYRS
ERK1, sequence (P27361 whole entry): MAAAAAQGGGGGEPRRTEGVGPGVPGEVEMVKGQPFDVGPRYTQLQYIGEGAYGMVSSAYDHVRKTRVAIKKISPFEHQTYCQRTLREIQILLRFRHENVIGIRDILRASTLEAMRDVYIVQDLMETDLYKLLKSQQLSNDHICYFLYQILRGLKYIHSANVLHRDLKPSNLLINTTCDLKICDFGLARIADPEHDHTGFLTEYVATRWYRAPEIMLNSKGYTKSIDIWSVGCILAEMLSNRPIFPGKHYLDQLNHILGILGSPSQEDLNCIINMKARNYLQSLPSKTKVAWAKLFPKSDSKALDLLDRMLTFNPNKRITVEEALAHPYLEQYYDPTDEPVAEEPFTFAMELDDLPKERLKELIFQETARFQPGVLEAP

Compound	IC50 (ERK2) [nM]	IC50 (ERK1) [nM]
Cc1cnc(Nc2ccc(OC(C)C)nc2)nc1-c1cc2n(c1)CCN(Cc1cc(F)ccc1CO)C2=O [Example 159, 2-(5-fluoro-2-(hydroxymethyl)benzyl)-7-(2-((6-isopropoxypyridin-3-yl)amino) 5-methylpyrimidin-4-yl)-3,4-dihydropyrrolo[1,2-a] pyrazine-1(2H)-one]	1.7	1.9
Cc1cnc(Nc2cccc3cnn(C)c23)nc1-c1cc2n(c1)CCN(Cc1cc(F)ccc1CO)C2=O [Example 140, 2-(5-fluoro-2-(hydroxymethyl)benzyl)-7-(5-methyl-2-((1-methyl-1h-indazole-7-yl)amino)pyrimidin-4-yl)-3,4-dihydropylrolo[1,2-a] pyrazine-1(2H)-one]	1.1	1.3
COC[C@H]1Cn2cc(-c3cc(Nc4c(C)noc4C)ncc3Cl)cc2C(=O)N1Cc1cc(F)ccc1CO [Example 81, (R)-7-(5-chloro-2-((3,5-dimethyl-isoxazole-4-yl)amino)pyridine-4-yl)-2-(5-fluoro-2-(hydroxymethyl)benzyl)-3-(methoxymethyl)-3,4-dihydropyrrolo[1,2-a] pyrazine-1(2H)-one]	1.5	1.1
O=C1c2cc(-c3cc(NC4CC(F)(F)C4)ncc3Cl)cn2CCN1Cc1cc(F)ccc1CO [Example 128, 7-(5-chloro-2-((3,3-difluorocyclobutyl)amino)pyridine-4-yl)-2-(5-fluoro-2 (hydroxymethyl)benzyl)-3,4-dihydropyrrolo[1,2-a] pyrazine-1(2H)-one]	0.89	0.65
COC[C@H]1Cn2cc(-c3cc(NC4CCC4)ncc3Cl)cc2C(=O)N1Cc1cc(F)ccc1CO [Example 70, (R)-7-(5-chloro-2-(cyclobutylamino)pyridin-4-yl)-2-(5-fluoro-2-(hydroxymethyl)benzyl)-3-(methoxymethyl)-3,4-dihydropyrrolo[1,2-a] pyrazine-1(2H)-one]	2	1.8
Cc1cnc(Nc2cccc3c2cnn3C)nc1-c1cc2n(c1)CCN(Cc1cc(F)ccc1CO)C2=O [Example 141, 2-(5-fluoro-2-(hydroxymethyl)benzyl)-7-(5-methyl-2-((1-methyl-1h-indazole-4-yl)amino)pyrimidin-4-yl)-3,4-dihydropyrrolo[1,2-a] pyrazine-1(2H)-one]	0.87	0.93
CC(C)Nc1cc(-c2c[nH]c(C(=O)NCc3ccccc3CO)c2)c(Cl)cn1 [Example 1, 4-(5-chloro-2-(isopropylamino)pyridin-4-yl)-N-(2-(hydroxymethyl)benzyl)-1H-pyrrole-2-methyl amide]	3.4	3
CC(C)Nc1cc(-c2cc3n(c2)CC(CO)CN(Cc2cc(F)ccc2CO)C3=O)c(Cl)cn1 (stereo not drawn) [Example 42, 8-(5-chloro-2-(isopropylamino)pyridin-4-yl)-2-(5-fluoro-2-(hydroxymethyl)benzyl)-4-(hydroxymethyl)-2,3,4,5-tetrahydro-1H-pyrrolo[1,2-a][1,4]diazepine-1-one]	1.6	2.5
COC[C@H]1Cn2cc(-c3cc(NC4CC4)ncc3Cl)cc2C(=O)N1Cc1cc(F)ccc1CO [Example 74, (R)-7-(5-chloro-2-(cyclopropylamino)pyridin-4-yl)-2-(5-fluoro-2-(hydroxymethyl)-benzyl)-3-(methoxymethyl)-3,4-dihydropyrrolo[1,2-a] pyrazine-1(2H)-one]	1.3	1.2
CC(C)Nc1cc(-c2cc3n(c2)CC2(COC(C)(C)OC2)CN(Cc2cc(F)ccc2CO)C3=O)c(Cl)cn1 [Example 28, 8-(5-chloro-2-(isopropylamino)pyridin-4-yl)-2-(5-fluoro-2-(hydroxymethyl)benzyl)-2′,2′-dimethyl-2,3-dihydro-1h,5h-spiro[pyrrolo [1,2-a][1,4]diazepine-4,5′-[1,3]dioxane]-1-one]	1.6	0.9
CCNc1ncc(Cl)c(-c2cc3n(c2)C[C@H](COC)N(Cc2cc(F)ccc2CO)C3=O)n1 [Example 131, (R)-7-(5-chloro-2-(ethylamino)pyrimidin-4-yl)-2-(5-fluoro-2-(hydroxymethyl)benzyl)-3-(methoxymethyl)-3,4-dihydropyrrolo[1,2-a] pyrazine-1(2H)-one]	1.4	0.83
O=C1c2cc(-c3cc(NCC(F)(F)F)ncc3Cl)cn2CCN1Cc1cc(F)ccc1CO [Example 124, 7-(5-chloro-2-((2,2,2-trifluoroethyl)amino)pyridine-4-yl)-2-(5-fluoro-2-(hydroxymethyl)benzyl)-3,4-dihydropyrrolo[1,2-a] pyrazine-1(2H)-one]	0.98	0.79
COC[C@H]1Cn2cc(-c3cc(Nc4c(C)cnn4C)ncc3Cl)cc2C(=O)N1Cc1cc(F)ccc1CO [Example 97, (R)-7-(5-chloro-2-((1,4-dimethyl-1h-pyrazole-5-yl)amino)pyridine-4-yl)-2-(5-fluoro-2-(hydroxymethyl)benzyl)-3-(methoxymethyl)-3,4-dihydropyrrolo[1,2-a] pyrazine-1(2H)-one]	0.97	–
COC[C@H]1Cn2cc(-c3c(Cl)cnc(Nc4ccnn4C)c3F)cc2C(=O)N1Cc1cc(F)ccc1CO [Example 47, (H)-7-(5-chloro-3-fluoro-2-((1-methyl-1H-pyrazol-5-yl)amino)pyridin-4-yl)-2-(5-fluoro-2-(hydroxymethyl)benzyl)-3-(methoxymethyl)-3,4-dihydropyrrolo[1,2-a]pyrazine-1(2H)-ketone]	0.9	–

Stronger by IC50 (ERK2), values ahead:

IC50 (ERK2) [nM]	IC50 (ERK1) [nM]	Compound
0.71	0.65	Cc1cnc(NC2COC2)nc1-c1c[nH]c(C(=O)NCc2cc(F)ccc2CO)c1 [Example 122, N-(5-fluoro-2-(hydroxymethyl)benzyl)-4-(5-methyl-2-(oxacyclobutane-3-ylamino)pyrimidin-4-yl)-1h-pyrrole-2-formamide]
0.7	0.7	Cc1cnc(Nc2cccc3c2OCO3)nc1-c1cc2n(c1)CCN(Cc1cc(F)ccc1CO)C2=O [Example 133, 7-(2-(benzo[D][1,3]dioxocyclopentene-4-ylamino)-5-methylpyrimidin-4-yl)-2-(5-fluoro-2-(hydroxymethyl)benzyl)-3,4-dihydropyrrolo[1,2-a] pyrazine-1(2H)-one]
0.7	1.6	Cc1cnc(Nc2cccc3c2OCCO3)nc1-c1cc2n(c1)CCN(Cc1cc(F)ccc1CO)C2=O [Example 135, 7-(2-((2,3-dihydrobenzo[b][1,4]dioxane-5-yl)amino)-5-methylpyrimidin-4-yl)-2-(5-fluoro-2-(hydroxymethyl)benzyl)-3,4-dihydropyrrolo[1,2-a] pyrazine-1(2H)-one]
0.6	0.3	CC(C)Nc1cc(-c2cc3n(c2)CCN(Cc2cc(F)c(F)cc2CO)C3=O)c(Cl)cn1 [Example 19, 7-(5-chloro-2-(isopropylamino)pyridine-4-yl)-2-(4,5-difluoro-2-(hydroxymethyl)benzyl)-3,4-dihydropyrrolo[1,2-a]pyrazine-1(2H)-one]
0.5	0.9	COC(=O)C1Cn2cc(-c3cc(NC(C)C)ncc3Cl)cc2C(=O)N1Cc1cc(F)ccc1CO (stereo not drawn) [Example 57, Methyl 7-(5-chloro-2-(isopropylamino)pyridin-4-yl)-2-(5-fluoro-2-(hydroxymethyl)benzyl)-1-oxo-1,2,3,4-tetrahydropyrrolo [1,2-a]pyrazine-3-carboxylic acid ethyl ester]
0.5	0.5	Cc1cnc(Nc2ccc3c(cnn3C)c2)nc1-c1cc2n(c1)CCN(Cc1cc(F)ccc1CO)C2=O [Example 134, 2-(5-fluoro-2-(hydroxymethyl)benzyl)-7-(5-methyl-2-((1-methyl-1h-indazole-5-yl)amino)pyrimidin-4-yl)-3,4-dihydropyrrolo[1,2-a] pyrazine-1(2H)-one]
0.5	0.6	CC(C)Nc1cc(-c2cc3n(c2)CC2(COCOC2)CN(Cc2cc(F)ccc2CO)C3=O)c(Cl)cn1 [Example 43, 8-(5-Chloro-2-(isopropylamino)pyridin-4-yl)-2-(5-fluoro-2-(hydroxymethyl)benzyl)-2,3-dihydro-1H,5H-spiro[pyrrolo[1,2-a][1,4]diazepine-4,5′-[1,3]dioxane]-1-one]
0.49	0.51	CC(C)Nc1cc(-c2cc3n(c2)C[C@H](CO)N(Cc2cc(F)ccc2CO)C3=O)c(Cl)cn1 [Example 59, (R)-7-(5-chloro-2-(isopropylamino)pyridin-4-yl)-2-(5-fluoro-2-(hydroxymethyl)benzyl)-3-(hydroxymethyl)-3,4-dihydropyrrolo[1,2-a] pyrazine-1(2H)-one]
0.35	1.6	COC[C@H]1Cn2cc(-c3ccnc(NC(C)C)n3)cc2C(=O)N1Cc1cc(F)ccc1CO [Example 127, (R)-2-(5-fluoro-2-(hydroxymethyl)benzyl)-7-(2-(isopropylamino)pyrimidin-4-yl)-3-(methoxymethyl)-3.4-dihydropyrrolo[1,2-a] pyrazine-1(2H)-one]
0.27	0.44	Cc1cnc(NC2COC2)nc1-c1cc2n(c1)CCN(Cc1cc(F)ccc1CO)C2=O [Example 32, 2-(5-Fluoro-2-(hydroxymethyl)benzyl)-7-(5-methyl-2-(oxetan-3-ylamino)pyrimidine-4-yl)-3,4-dihydropyrrolo[1,2-a]pyrazine-1(2H)-one]
0.2	0.2	Cc1cnc(NC(C)CO)nc1-c1cc2n(c1)CCN(Cc1cc(F)ccc1CO)C2=O (stereo not drawn) [Example 121, 2-(5-fluoro-2-(hydroxymethyl)benzyl)-7-(2-((1-hydroxypropyl-2-yl)amino)-5-methylpyrimidin-4-yl)-3,4-dihydropyrrolo[1,2-a] pyrazine-1(2H)-one]
